Holding throughout (assay type): cell-based
For one assay, the system named is NHDF-Ad. The assay is described as follows: CellTiter-Glo luminescent cell viability assay (ATP quantification), NHDF-Ad normal cells. The following applies: normal human dermal fibroblasts, 72 h treatment. From the text: (§1) Influence of the test compounds on viability (proliferation) of cell lines used was investigated in concentration range 0-100 μmol·l^−1.
Normal human dermal fibroblasts were cultivated without antibiotics in basal medium for fibroblasts (ATCC/LGC Standards, cat. no. PCS-201-030) with added “Fibroblast Growth Kit-Low serum” (ATCC/LGC Standards, cat. no. PCS-201-041) containing 2% FBS, L-glutamine, hydrocortisone, ascorbic acid, rh FGF beta, rh insulin. When 90% confluency was reached the fibroblasts were washed with sterile PBS (5 ml) and dissociated by addition of 0.25% solution of trypsin/EDTA (2 ml; 2 min; 37° C.). After that 5 ml of cultivation medium for fibroblasts was added and the cells were centrifuged (180×g, 7 min), the cell pellet was resuspended, and transferred in the amount needed into a new cultivation bottle with fresh medium. The same cell release procedure was applied when the cells were to be used in experiments. The cells were used in experiments between the 3rd and the 15th passage after defreeezing. Population doubling time of NHDF-Ad cell line was 33 h under the cultivation conditions used.
(§2) In order to test the sensitivity of the cell lines towards the studied helquats, cytotoxity test for cell viability assessment based on ATP quantification in cell lysates was used (CellTiter-Glo® Luminescent Cell Viability Assay, Promega, cat. no. G7571). In this test, ATP in cell lysates is detected using luciferase reaction. Luminescence intensity correlates with the ATP level and thus with quantity of metabolically active (viable) cells. IC50 value serves as the output, that is the concentration of the test compound which leads to 50% reduction in number of viable cells as compared to control, untreated population. To this end, IC50 value reflects efficiency of the test compound with regard to the given cell line.
(§3) Cells in the exponential growth phase were seeded into a 96-well microtiter plate were plated at 3000 cells per well. Each well contained 90 μl of cell suspension. The next day, 10 μl of 10× concentrated test compound solutions were added. The effect of helquats was investigated in concentration range 1 to 100 μmol·l^−1 (e.g. 1; 2.5; 5; 7.5; 10; 15; 25; 50 and 100 μmol·l^−1). Apart from the section containing the concentration series of the test compound, each well contained 2 control columns, the first with pure medium (so called blank) and the second with cells in medium without the test compounds (control). Into wells containing controls and blanks, volume of solvent (water) equal to the volume of added compound solutions was added. After 72 h of incubation with the test compounds viability was determined according to the manufacturer's instructions. In short: microtiter well plate was left 30 min to reach the room temperature after it has been removed from the incubator. Then, into each well, 100 μl of the prepared detection agent was added. Next, the well plate was shaken for 2 min to complete the full lysis. Next, after the well had been left in the dark for 15 min, the luminescence was measured in each well using luminometer (Tecan Genios, Austria).
(§4) IC50 value represents concentration of the test compound, which leads to 50% reduction of viable cells (inhibition of cell growth) after 72 h of the treatment. Each helquat concentration was tested in triplicates in a IC50 quantification and at least 3 independent IC50 quantification experiments were performed. IC50 values over 100 μmol·l^−1 were obtained by extrapolation of data measured in concentration range 0-100 μmol·l^−1 for the given helquat.

A further assay relates to MOLT-4. Nature of the assay: CellTiter-Glo luminescent cell viability assay (ATP quantification), MOLT-4. The following applies: acute lymfoblastic leukemia cells, 72 h treatment, viable cells by ATP luminescence. Here is the method:
as §1
Suspension cell line MOLT-4 is a permanent in vitro culture of acute lymfoblastic leukemia. Linie MOLT-4 cell line was cultivated in RPMI 1640 medium (Sigma-Aldrich, see above) with addition of 2 mmol glutamine (Invitrogen, see above), 10% fetal bovine serum (FBS, Sigma-Aldrich, see above), 100 IU/ml peniciline, 100 μg/ml streptomycine (Sigma-Aldrich, see above). Passaging was performed 2-3× a week. Population doubling time of […] cell line was 25 h under the cultivation conditions used.
as §2, §3, §4
A general note: Cellular ATP, detected with luciferase, serves as a proxy for viable cell number.

Another assay deals with Hep G2. Nature of the assay: CellTiter-Glo luminescent cell viability assay (ATP quantification), Hep G2. The note with it: hepatocellular carcinoma cells, 72 h treatment, viable cells by ATP luminescence. Here is the method:
as §1
Adherent cell line Hep G2 is a permanent in vitro culture derived from liver tissue of a patient with hepatocellular carcinoma. Hep G2 cell line was cultivated in DMEM medium (Sigma-Aldrich, cat. no. M4528) with addition of 2 mmol·l^−1 glutamine (Invitrogen, see above), 10% fetal bovine serum (FBS, Sigma-Aldrich, see above), 100 IU/ml peniciline, 100 μg/ml streptomycine (Sigma-Aldrich, see above). Passaging was performed twice a week. After washing of cells with sterile PBS, the cells were released by 0.25% trypsin/EDTA (Sigma-Aldrich, see above) at 37° C. for 2 minutes. The trypsin was inactivated by addition of 2 volumes of complete medium, cells were then centrifuged (250×g, 5 min), resuspended, and transferred in the amount needed into a new cultivation bottle with fresh medium. Population doubling time of Hep G2 cell line was 28 h under the cultivation conditions used.
as §2
as §3, with “In short: microtiter well plate was left 30 min to reach the room temperature after it has been removed from the incubator. Then, into each well, 100 μl of the prepared detection agent was added. Next, the well plate was shaken for 2 min to complete the full lysis.” left out, “Austria). […]” for “Austria).”

The mark [1] stands for this setting: viable cells by ATP luminescence, class symbols.

pIC50: −log10 of the molar value. Where two headings read alike, the source gives them in different places. Some results are limits rather than exact numbers.

Consider three molecules from patent publication US9340543B2, “Helquat derivatives, preparation thereof, and use thereof as medicaments” (USTAV ORGANICKE CHEMIE A BIOCHEMIE AKADEMIE VED CR, V.V.I., priority 2013, dated 2016).

Take `Cc1c(C)c2c(c3c1CC[n+]1ccc(/C=C/c4ccc(N(C)C)cc4)cc1-3)-c1c3ccccc3cc[n+]1CC2` [(M)-1, (M)-(E)-13-(4-(dimethylamino)styryl)-6,7-dimethyl-4,5,8,9-tetrahydroiso-quinolino[1,2-a]pyrido[1,2-k][2,9]phenanthroline-3,10-diium trifluoromethanesulfonate]: the pIC50 (in general, the negative decadic logarithm of the IC50, by convention in mol/L) in the assay with NHDF-Ad (setting [1]) was 3.82 to 4.29; with MOLT-4 it was more than 5.00; in the assay with Hep G2 (read-out: IC50 HepG2), 4.30 to 4.96.
For the molecule `COc1ccc(/C=C/c2cc[n+]3c(c2)-c2c(c(C)c(C)c4c2-c2c5ccccc5cc[n+]2CC4)CC3)cc1` [(M)-6, (M)-(E)-13-(4-methoxystyryl)-6,7-dimethyl-4,5,8,9-tetrahydroisoquinolino[1,2-a]pyrido[1,2-k][2,9]phenanthroline-3,10-diium trifluoromethanesulfonate], the pIC50 is less than 3.82 with NHDF-Ad (Fibroblast, numeric bound, values over 100 obtained by extrapolation of data measured at 0-100 μmol·l−1); 4.30 to 4.96 in the assay on MOLT-4 (Homo sapiens, MOLT-4); 4.30 to 4.96 in the assay on Hep G2 (Homo sapiens, HepG2).
As for `COc1ccc2cc(/C=C/c3cc[n+]4c(c3)-c3c(c(C)c(C)c5c3-c3c6ccccc6cc[n+]3CC5)CC4)ccc2c1` [(M)-7, (M)-(E)-13-(2-(6-methoxynaphthalene-2-yl)vinyl)-6,7-dimethyl-4,5,8,9-tetrahydroisoquinolino[1,2-a]pyrido[1,2-k][2,9]phenanthroline-3,10-diium trifluoromethanesulfonate], the values for the pIC50 in the assay on NHDF-Ad (setting [1]), in the assay on MOLT-4 and with Hep G2 (read-out: IC50 HepG2) were 3.82 to 4.29, more than 5.00 and 4.30 to 4.96, respectively.
